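96-well plates; 48 h exposure; 5 concentrations. Endpoints by linear interpolation between flanking doses. Not reached: highest tested concentration assigned. GI50 marks 50% less growth.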 Activity calls are given as the source filed them. No stated cut-off is given here; in the data, active = GI50 up to about 1.1 µM and inactive = higher.
Columns and labels:
Experiment in all cases: NCI tumour cell line growth inhibition, 48 h
CCRF-CEM = tested on: CCRF-CEM
HCT-116 = tested on: HCT-116
HOP-62 = tested on: HOP-62
HOP-92 = tested on: HOP-92
M14 = tested on: M14
MDA-MB-231 = tested on: MDA-MB-231
MDA-N = tested on: MDA-N
OVCAR-5 = tested on: OVCAR-5
PC-3 = tested on: PC-3
RXF 393 = tested on: RXF 393
SF-268 = tested on: SF-268
SF-295 = tested on: SF-295
SF-539 = tested on: SF-539
SK-OV-3 = tested on: SK-OV-3
SNB-19 = tested on: SNB-19
SR = tested on: SR
T47D = tested on: T47D
UACC-257 = tested on: UACC-257
NCI-H522 = tested on: NCI-H522
BT-549 = tested on: BT-549

Measured: GI50

Nc1ccccc1CC(O)C(=O)O (configuration not stated)
inactive: CCRF-CEM > 100 µM | HCT-116 > 100 µM | HOP-62 > 100 µM | HOP-92 > 100 µM | M14 > 100 µM | MDA-MB-231 > 100 µM | MDA-N > 100 µM | OVCAR-5 > 100 µM | PC-3 > 100 µM | RXF 393 > 100 µM | SF-268 > 100 µM | SF-295 > 100 µM | SF-539 > 100 µM | SK-OV-3 > 100 µM | SNB-19 > 100 µM | SR > 100 µM | T47D > 100 µM | UACC-257 > 100 µM

COc1ccc(C=C2C(C)=NN(c3cccc(Cl)c3)C23C(Cl)C(=O)N3c2nc3ccccc3s2)cc1 (configuration not stated)
inactive: CCRF-CEM 3.45 µM | HCT-116 15.5 µM | HOP-62 20 µM | HOP-92 9.02 µM | M14 17.2 µM | MDA-MB-231 12.9 µM | MDA-N 19.9 µM | NCI-H522 8.53 µM | OVCAR-5 17.3 µM | PC-3 17.2 µM | RXF 393 12.7 µM | SF-268 4.89 µM | SF-295 22.1 µM | SF-539 30.5 µM | SK-OV-3 28.6 µM | SR 21.6 µM | T47D 24.6 µM | UACC-257 24.9 µM

Cc1c(C(=O)CC(=O)C(=O)NC2C3CC4CC(C3)CC2C4)[n+]([O-])c2ccccc2[n+]1[O-] (configuration not stated)
inactive: CCRF-CEM 90.6 µM | HCT-116 > 100 µM | HOP-62 > 100 µM | HOP-92 > 100 µM | M14 > 100 µM | NCI-H522 > 100 µM | OVCAR-5 > 100 µM | RXF 393 > 100 µM | SF-268 > 100 µM | SF-295 > 100 µM | SF-539 > 100 µM | SK-OV-3 > 100 µM | SNB-19 > 100 µM | SR > 100 µM | UACC-257 > 100 µM

CC1CN=C(Nc2ccc(F)cc2F)S1 (configuration not stated)
inactive: CCRF-CEM > 100 µM | HCT-116 > 100 µM | HOP-62 > 100 µM | HOP-92 15.6 µM | MDA-MB-231 > 100 µM | MDA-N > 100 µM | OVCAR-5 > 100 µM | PC-3 > 100 µM | SF-268 > 100 µM | SF-295 > 100 µM | SF-539 > 100 µM | SK-OV-3 > 100 µM | SNB-19 > 100 µM | SR > 100 µM | T47D 88.9 µM | UACC-257 > 100 µM

NNC(=O)/C(NC(=O)c1ccccc1)=C(\N)c1ccc(Cl)cc1
inactive: CCRF-CEM 38.2 µM | HCT-116 > 100 µM | HOP-62 > 100 µM | HOP-92 > 100 µM | M14 > 100 µM | NCI-H522 61.1 µM | OVCAR-5 > 100 µM | RXF 393 > 100 µM | SF-268 > 100 µM | SF-295 > 100 µM | SF-539 > 100 µM | SK-OV-3 > 100 µM | SNB-19 > 100 µM | SR 83.8 µM | UACC-257 > 100 µM

CCC(=C(C#N)C#N)c1cc(OC)c(OC)c(OC)c1
inactive: CCRF-CEM > 100 µM | HCT-116 > 100 µM | HOP-62 > 100 µM | HOP-92 95.1 µM | M14 > 100 µM | NCI-H522 > 100 µM | OVCAR-5 > 100 µM | RXF 393 > 100 µM | SF-268 > 100 µM | SF-539 > 100 µM | SK-OV-3 > 100 µM | SNB-19 > 100 µM | SR > 100 µM

c1ccc(C2=NOC3(c4ccccc4)SC4CCCCC4CN23)cc1 (configuration not stated)
inactive: CCRF-CEM 6.38 µM | HCT-116 17.8 µM | HOP-62 38.7 µM | HOP-92 15.9 µM | M14 21.9 µM | NCI-H522 9.42 µM | OVCAR-5 > 100 µM | RXF 393 15.9 µM | SF-268 22.8 µM | SF-295 28.1 µM | SF-539 18.7 µM | SK-OV-3 77.4 µM | SNB-19 62.4 µM | SR 25 µM | UACC-257 38.5 µM

CC(C)(c1ccc(OC#N)cc1)c1ccc(OC#N)cc1
inactive: CCRF-CEM > 55.7 µM | HCT-116 > 44.1 µM | HOP-62 > 100 µM | HOP-92 > 100 µM | M14 > 100 µM | NCI-H522 23.2 µM | OVCAR-5 > 100 µM | RXF 393 > 87.9 µM | SF-268 > 66.5 µM | SF-295 > 100 µM | SF-539 > 100 µM | SK-OV-3 > 100 µM | SNB-19 > 100 µM | SR 27 µM | UACC-257 > 100 µM

O=C(CBr)c1ccc2cc(Br)c3ccccc3c2c1
inactive: BT-549 18.2 µM | CCRF-CEM 33.3 µM | HCT-116 40.3 µM | HOP-62 37.4 µM | HOP-92 20.9 µM | M14 25.1 µM | MDA-MB-231 18.2 µM | NCI-H522 16.4 µM | OVCAR-5 24.7 µM | PC-3 21 µM | RXF 393 18.3 µM | SF-268 20.3 µM | SF-295 24.4 µM | SF-539 20.9 µM | SNB-19 31.9 µM | SR 12.1 µM | UACC-257 24 µM

Source: ChEMBL document CHEMBL1201862, “PubChem BioAssay data set” (2004)
